This note sets out measurements from ChEMBL document CHEMBL4229438, “N-Acylhydrazones as drugs” (Bioorg Med Chem Lett, 2018).

The IC50 is the point on the concentration scale where inhibition reaches its midpoint. Usually half-life stands for the time in which the quantity being followed falls by half.

For data set [1], the system named is HL-60. The data set is described as follows: Cytotoxicity against human HL60 cells. The data set is classed as functional, cell-based.
Another data set concerns OVCAR-8. The data set is described as follows: Cytotoxicity against human OVCAR8 cells. The data set is classed as functional, cell-based.
Another data set relates to HCT-8. The data set is described as follows: Cytotoxicity against human HCT8 cells. It counts as functional, cell-based.
Data set [2] deals with T1, Caspase-3 (Mus musculus) (UniProt P70677).
T1 sequence (whole entry): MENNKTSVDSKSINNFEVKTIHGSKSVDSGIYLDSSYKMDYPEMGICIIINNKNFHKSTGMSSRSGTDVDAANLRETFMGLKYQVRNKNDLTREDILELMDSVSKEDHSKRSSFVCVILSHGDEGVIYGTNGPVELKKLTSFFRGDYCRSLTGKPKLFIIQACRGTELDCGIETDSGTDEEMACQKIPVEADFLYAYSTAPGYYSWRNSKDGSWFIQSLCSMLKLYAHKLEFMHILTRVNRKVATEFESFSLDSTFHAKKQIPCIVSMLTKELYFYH
The conditions noted are these: EL4, 10 uM.
Description: Activation of procaspase-3 in mouse EL4 cells assessed as increase in cell death by measuring combination index at 10 uM after 24 hrs in presence of 2500 nM doxorubucin by alamar blue assay

Data set [3] addresses T1, Caspase-3 (Mus musculus). The note with it: EL4, 10 uM. This is another data set of the same source.
Description: Activation of procaspase-3 in mouse EL4 cells assessed as increase in cell death by measuring combination index at 10 uM after 24 hrs in presence of 1500 nM doxorubucin by alamar blue assay
For data set [4], the target named is T1, Caspase-3 (Mus musculus). The note with it: EL4, 10 uM. This is another data set of the same source.
Description: Activation of procaspase-3 in mouse EL4 cells assessed as increase in cell death by measuring combination index at 10 uM after 24 hrs in presence of 1000 nM doxorubucin by alamar blue assay
Data set [5] concerns the target T1, Caspase-3 (Mus musculus). The conditions noted are these: EL4, 10 uM. This is another data set of the same source.
Description: Activation of procaspase-3 in mouse EL4 cells assessed as increase in cell death by measuring combination index at 10 uM after 24 hrs in presence of 500 nM doxorubucin by alamar blue assay
Data set [6] deals with T1, Caspase-3 (Mus musculus). The conditions noted are these: EL4, 10 uM. This is another data set of the same source.
Description: Activation of procaspase-3 in mouse EL4 cells assessed as increase in cell death by measuring combination index at 10 uM after 24 hrs in presence of 100 nM doxorubucin by alamar blue assay
The target in data set [7] is T1, Caspase-3 (Mus musculus). The conditions noted are these: EL4, 5 uM.
Description: Activation of procaspase-3 in mouse EL4 cells assessed as increase in cell death by measuring combination index at 5 uM after 24 hrs in presence of 2500 nM doxorubucin by alamar blue assay
Data set [8] has as its target T1, Caspase-3 (Mus musculus). The conditions noted are these: EL4, 5 uM. The source holds these as a separate data set.
Description: Activation of procaspase-3 in mouse EL4 cells assessed as increase in cell death by measuring combination index at 5 uM after 24 hrs in presence of 1500 nM doxorubucin by alamar blue assay
The target of data set [9] is T1, Caspase-3 (Mus musculus). The conditions noted are these: EL4, 5 uM. This is another data set of the same source.
Description: Activation of procaspase-3 in mouse EL4 cells assessed as increase in cell death by measuring combination index at 5 uM after 24 hrs in presence of 1000 nM doxorubucin by alamar blue assay
In data set [10] the target is T1, Caspase-3 (Mus musculus). The note with it: EL4, 5 uM. This is another data set of the same source.
Description: Activation of procaspase-3 in mouse EL4 cells assessed as increase in cell death by measuring combination index at 5 uM after 24 hrs in presence of 500 nM doxorubucin by alamar blue assay
For data set [11], the target named is T1, Caspase-3 (Mus musculus). The note with it: EL4, 5 uM. This is another data set of the same source.
Description: Activation of procaspase-3 in mouse EL4 cells assessed as increase in cell death by measuring combination index at 5 uM after 24 hrs in presence of 100 nM doxorubucin by alamar blue assay
Data set [12] concerns the target T1, Caspase-3 (Mus musculus). The conditions noted are these: 5 uM.
Description: Activation of procaspase-3 in mouse K7M2 cells assessed as increase in cell death by measuring combination index at 5 uM after 24 hrs in presence of 250 nM doxorubucin by alamar blue assay
The target in data set [13] is T1, Caspase-3 (Mus musculus). The note with it: 5 uM. This is another data set of the same source.
Description: Activation of procaspase-3 in mouse K7M2 cells assessed as increase in cell death by measuring combination index at 5 uM after 24 hrs in presence of 100 nM doxorubucin by alamar blue assay
Data set [14] concerns the target T1, Caspase-3 (Mus musculus). The note with it: 5 uM. This is another data set of the same source.
Description: Activation of procaspase-3 in mouse K7M2 cells assessed as increase in cell death by measuring combination index at 5 uM after 24 hrs in presence of 50 nM doxorubucin by alamar blue assay
Data set [15] deals with T1, Caspase-3 (Mus musculus). The note with it: 5 uM. The source holds these as a separate data set.
Description: Activation of procaspase-3 in mouse K7M2 cells assessed as increase in cell death by measuring combination index at 5 uM after 24 hrs in presence of 10 nM doxorubucin by alamar blue assay
In data set [16] the target is T1, Caspase-3 (Mus musculus). The conditions noted are these: 5 uM. The source holds these as a separate data set.
Description: Activation of procaspase-3 in mouse K7M2 cells assessed as increase in cell death by measuring combination index at 5 uM after 24 hrs in presence of 25 nM doxorubucin by alamar blue assay
For data set [17], the target named is T1, Caspase-3 (Mus musculus). The note with it: 2.5 uM.
Description: Activation of procaspase-3 in mouse K7M2 cells assessed as increase in cell death by measuring combination index at 2.5 uM after 24 hrs in presence of 250 nM doxorubucin by alamar blue assay
For data set [18], the target named is T1, Caspase-3 (Mus musculus). The note with it: 2.5 uM. The source holds these as a separate data set.
Description: Activation of procaspase-3 in mouse K7M2 cells assessed as increase in cell death by measuring combination index at 2.5 uM after 24 hrs in presence of 100 nM doxorubucin by alamar blue assay
Data set [19] addresses T1, Caspase-3 (Mus musculus). The note with it: 2.5 uM. This is another data set of the same source.
Description: Activation of procaspase-3 in mouse K7M2 cells assessed as increase in cell death by measuring combination index at 2.5 uM after 24 hrs in presence of 50 nM doxorubucin by alamar blue assay
Data set [20] concerns the target T1, Caspase-3 (Mus musculus). The note with it: 2.5 uM. The source holds these as a separate data set.
Description: Activation of procaspase-3 in mouse K7M2 cells assessed as increase in cell death by measuring combination index at 2.5 uM after 24 hrs in presence of 25 nM doxorubucin by alamar blue assay
Data set [21] concerns the target T1, Caspase-3 (Mus musculus). The note with it: 2.5 uM. This is another data set of the same source.
Description: Activation of procaspase-3 in mouse K7M2 cells assessed as increase in cell death by measuring combination index at 2.5 uM after 24 hrs in presence of 10 nM doxorubucin by alamar blue assay
The target of data set [22] is T1, Caspase-3 (Mus musculus). The note with it: 7.5 uM.
Description: Activation of procaspase-3 in mouse B16F10 cells assessed as increase in cell death by measuring combination index at 7.5 uM after 24 hrs in presence of 10 nM doxorubucin by alamar blue assay
Data set [23] deals with T1, Caspase-3 (Mus musculus). The conditions noted are these: 7.5 uM. The source holds these as a separate data set.
Description: Activation of procaspase-3 in mouse B16F10 cells assessed as increase in cell death by measuring combination index at 7.5 uM after 24 hrs in presence of 25 nM doxorubucin by alamar blue assay
Data set [24] addresses T1, Caspase-3 (Mus musculus). The note with it: 7.5 uM. This is another data set of the same source.
Description: Activation of procaspase-3 in mouse B16F10 cells assessed as increase in cell death by measuring combination index at 7.5 uM after 24 hrs in presence of 50 nM doxorubucin by alamar blue assay
The target in data set [25] is T1, Caspase-3 (Mus musculus). The conditions noted are these: 7.5 uM. This is another data set of the same source.
Description: Activation of procaspase-3 in mouse B16F10 cells assessed as increase in cell death by measuring combination index at 7.5 uM after 24 hrs in presence of 100 nM doxorubucin by alamar blue assay
Data set [26] addresses T1, Caspase-3 (Mus musculus). The conditions noted are these: 7.5 uM. The source holds these as a separate data set.
Description: Activation of procaspase-3 in mouse B16F10 cells assessed as increase in cell death by measuring combination index at 7.5 uM after 24 hrs in presence of 250 nM doxorubucin by alamar blue assay
Data set [27] deals with T1, Caspase-3 (Mus musculus). The conditions noted are these: 15 uM.
Description: Activation of procaspase-3 in mouse B16F10 cells assessed as increase in cell death by measuring combination index at 15 uM after 24 hrs in presence of 10 nM doxorubucin by alamar blue assay
The target in data set [28] is T1, Caspase-3 (Mus musculus). The note with it: 15 uM. The source holds these as a separate data set.
Description: Activation of procaspase-3 in mouse B16F10 cells assessed as increase in cell death by measuring combination index at 15 uM after 24 hrs in presence of 25 nM doxorubucin by alamar blue assay
Data set [29] deals with T1, Caspase-3 (Mus musculus). The conditions noted are these: 15 uM. This is another data set of the same source.
Description: Activation of procaspase-3 in mouse B16F10 cells assessed as increase in cell death by measuring combination index at 15 uM after 24 hrs in presence of 50 nM doxorubucin by alamar blue assay
Data set [30] deals with T1, Caspase-3 (Mus musculus). The note with it: 15 uM. The source holds these as a separate data set.
Description: Activation of procaspase-3 in mouse B16F10 cells assessed as increase in cell death by measuring combination index at 15 uM after 24 hrs in presence of 100 nM doxorubucin by alamar blue assay
Data set [31] concerns the target T1, Caspase-3 (Mus musculus). The note with it: 15 uM. This is another data set of the same source.
Description: Activation of procaspase-3 in mouse B16F10 cells assessed as increase in cell death by measuring combination index at 15 uM after 24 hrs in presence of 250 nM doxorubucin by alamar blue assay
Data set [32] addresses T1, Caspase-3 (Mus musculus). The note with it: 4T1, 2.5 uM.
Description: Activation of procaspase-3 in mouse 4T1 cells assessed as increase in cell death by measuring combination index at 2.5 uM after 24 hrs in presence of 10 nM doxorubucin by alamar blue assay
Data set [33] deals with T1, Caspase-3 (Mus musculus). The conditions noted are these: 4T1, 2.5 uM. This is another data set of the same source.
Description: Activation of procaspase-3 in mouse 4T1 cells assessed as increase in cell death by measuring combination index at 2.5 uM after 24 hrs in presence of 25 nM doxorubucin by alamar blue assay
Data set [34] deals with T1, Caspase-3 (Mus musculus). The note with it: 4T1, 2.5 uM. This is another data set of the same source.
Description: Activation of procaspase-3 in mouse 4T1 cells assessed as increase in cell death by measuring combination index at 2.5 uM after 24 hrs in presence of 50 nM doxorubucin by alamar blue assay
Data set [35] addresses T1, Caspase-3 (Mus musculus). The note with it: 4T1, 2.5 uM. The source holds these as a separate data set.
Description: Activation of procaspase-3 in mouse 4T1 cells assessed as increase in cell death by measuring combination index at 2.5 uM after 24 hrs in presence of 100 nM doxorubucin by alamar blue assay
The target of data set [36] is T1, Caspase-3 (Mus musculus). The note with it: 4T1, 2.5 uM. This is another data set of the same source.
Description: Activation of procaspase-3 in mouse 4T1 cells assessed as increase in cell death by measuring combination index at 2.5 uM after 24 hrs in presence of 250 nM doxorubucin by alamar blue assay
For data set [37], the target named is T1, Caspase-3 (Mus musculus). The conditions noted are these: 4T1, 5 uM.
Description: Activation of procaspase-3 in mouse 4T1 cells assessed as increase in cell death by measuring combination index at 5 uM after 24 hrs in presence of 10 nM doxorubucin by alamar blue assay
For data set [38], the target named is T1, Caspase-3 (Mus musculus). The conditions noted are these: 4T1, 5 uM. The source holds these as a separate data set.
Description: Activation of procaspase-3 in mouse 4T1 cells assessed as increase in cell death by measuring combination index at 5 uM after 24 hrs in presence of 25 nM doxorubucin by alamar blue assay
Data set [39] concerns the target T1, Caspase-3 (Mus musculus). The note with it: 4T1, 5 uM. The source holds these as a separate data set.
Description: Activation of procaspase-3 in mouse 4T1 cells assessed as increase in cell death by measuring combination index at 5 uM after 24 hrs in presence of 50 nM doxorubucin by alamar blue assay
Data set [40] addresses T1, Caspase-3 (Mus musculus). The conditions noted are these: 4T1, 5 uM. This is another data set of the same source.
Description: Activation of procaspase-3 in mouse 4T1 cells assessed as increase in cell death by measuring combination index at 5 uM after 24 hrs in presence of 100 nM doxorubucin by alamar blue assay
The target of data set [41] is T1, Caspase-3 (Mus musculus). The conditions noted are these: 4T1, 5 uM. The source holds these as a separate data set.
Description: Activation of procaspase-3 in mouse 4T1 cells assessed as increase in cell death by measuring combination index at 5 uM after 24 hrs in presence of 250 nM doxorubucin by alamar blue assay
The target in data set [42] is T1, Caspase-3 (Mus musculus). The note with it: 2.5 uM. The source holds these as a separate data set.
Description: Activation of procaspase-3 in mouse 3LL cells assessed as increase in cell death by measuring combination index at 2.5 uM after 24 hrs in presence of 10 nM doxorubucin by alamar blue assay
Data set [43] has as its target T1, Caspase-3 (Mus musculus). The conditions noted are these: 2.5 uM. The source holds these as a separate data set.
Description: Activation of procaspase-3 in mouse 3LL cells assessed as increase in cell death by measuring combination index at 2.5 uM after 24 hrs in presence of 25 nM doxorubucin by alamar blue assay
For data set [44], the target named is T1, Caspase-3 (Mus musculus). The conditions noted are these: 2.5 uM. This is another data set of the same source.
Description: Activation of procaspase-3 in mouse 3LL cells assessed as increase in cell death by measuring combination index at 2.5 uM after 24 hrs in presence of 50 nM doxorubucin by alamar blue assay
The target in data set [45] is T1, Caspase-3 (Mus musculus). The conditions noted are these: 2.5 uM. This is another data set of the same source.
Description: Activation of procaspase-3 in mouse 3LL cells assessed as increase in cell death by measuring combination index at 2.5 uM after 24 hrs in presence of 100 nM doxorubucin by alamar blue assay
Data set [46] has as its target T1, Caspase-3 (Mus musculus). The note with it: 2.5 uM. The source holds these as a separate data set.
Description: Activation of procaspase-3 in mouse 3LL cells assessed as increase in cell death by measuring combination index at 2.5 uM after 24 hrs in presence of 250 nM doxorubucin by alamar blue assay
For data set [47], the target named is T1, Caspase-3 (Mus musculus). The conditions noted are these: 7.5 uM. This is another data set of the same source.
Description: Activation of procaspase-3 in mouse 3LL cells assessed as increase in cell death by measuring combination index at 7.5 uM after 24 hrs in presence of 10 nM doxorubucin by alamar blue assay
In data set [48] the target is T1, Caspase-3 (Mus musculus). The note with it: 7.5 uM. The source holds these as a separate data set.
Description: Activation of procaspase-3 in mouse 3LL cells assessed as increase in cell death by measuring combination index at 7.5 uM after 24 hrs in presence of 25 nM doxorubucin by alamar blue assay
In data set [49] the target is T1, Caspase-3 (Mus musculus). The note with it: 7.5 uM. The source holds these as a separate data set.
Description: Activation of procaspase-3 in mouse 3LL cells assessed as increase in cell death by measuring combination index at 7.5 uM after 24 hrs in presence of 50 nM doxorubucin by alamar blue assay
For data set [50], the target named is T1, Caspase-3 (Mus musculus). The conditions noted are these: 7.5 uM. This is another data set of the same source.
Description: Activation of procaspase-3 in mouse 3LL cells assessed as increase in cell death by measuring combination index at 7.5 uM after 24 hrs in presence of 100 nM doxorubucin by alamar blue assay
Data set [51] deals with T1, Caspase-3 (Mus musculus). The note with it: 7.5 uM. The source holds these as a separate data set.
Description: Activation of procaspase-3 in mouse 3LL cells assessed as increase in cell death by measuring combination index at 7.5 uM after 24 hrs in presence of 250 nM doxorubucin by alamar blue assay
The subject of the next data set is Thoracic aorta. The data set is described as follows: Vasodilatory activity in Wistar rat thoracic aortic rings assessed as inhibition of noradrenaline-induced contraction. It counts as functional, tissue-based.
A short description of data set [52]: Stability in rat plasma assessed as parent compound remaining at 100 uM after 10 hrs by LC-MS analysis. It counts as ADME, cell-free. The conditions noted are these: read-out: Stability.
Data set [53] is described as follows: Half life in patient with solid tumor at 230 mg/m2, iv treated for 30 mins by HPLC-MS analysis. The data set is classed as ADME, organism-based. The conditions noted are these: human, in vivo.
In data set [54] the test system is HL-60. The experiment in a line: Cytotoxicity against human HL60 cells by MTT assay. The data set is classed as functional, cell-based. Background: Formazan colour is commonly taken as a measure of viable cells.
The target in data set [55] is Muscarinic acetylcholine receptor M3 (Rattus norvegicus, UniProt P08483). The experiment in a line: Agonist activity at endothelial M3 receptor in Wistar-Kyoto rat thoracic aortic rings assessed as inhibition of phenylephrine-induced contraction. It counts as functional.
Muscarinic acetylcholine receptor M3, sequence (P08483 whole entry): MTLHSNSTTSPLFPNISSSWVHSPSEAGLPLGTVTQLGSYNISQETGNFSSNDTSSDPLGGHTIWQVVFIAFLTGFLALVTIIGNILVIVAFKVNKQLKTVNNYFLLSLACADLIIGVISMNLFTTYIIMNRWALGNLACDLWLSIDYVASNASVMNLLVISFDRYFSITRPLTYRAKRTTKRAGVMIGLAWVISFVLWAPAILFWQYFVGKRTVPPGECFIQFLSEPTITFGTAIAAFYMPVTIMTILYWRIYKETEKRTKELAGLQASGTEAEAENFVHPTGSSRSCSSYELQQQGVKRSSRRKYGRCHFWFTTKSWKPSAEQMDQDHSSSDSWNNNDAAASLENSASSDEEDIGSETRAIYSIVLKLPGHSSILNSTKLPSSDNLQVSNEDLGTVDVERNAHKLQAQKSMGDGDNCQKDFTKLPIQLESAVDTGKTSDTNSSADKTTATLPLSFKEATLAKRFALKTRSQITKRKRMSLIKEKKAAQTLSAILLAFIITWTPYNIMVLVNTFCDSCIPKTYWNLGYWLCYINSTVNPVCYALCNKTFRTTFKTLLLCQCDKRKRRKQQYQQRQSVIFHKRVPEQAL

Take `COc1cc(C(=O)N/N=C/c2cc3ccccc3s2)cc(OC)c1OC`: the half-maximal inhibitory concentration (IC50) with HL-60 [1] turned out to be 0.0004 µM; in the data set on OVCAR-8, 0.009 µM; with HCT-8, 0.005 µM.
In the case of `C=CCc1cccc(/C=N/NC(=O)CN2CCN(Cc3ccccc3)CC2)c1O`, the CI on Caspase-3 (Mus musculus) [2] lay in the range of 0.21 to 61.4; on Caspase-3 (Mus musculus) [3] it was 0.37 to 46.7; at Caspase-3 (Mus musculus) [4], 0.53 to 37; on Caspase-3 (Mus musculus) [5], 0.69 to 27.7; at Caspase-3 (Mus musculus) [6], 0.9 to 18.2; on Caspase-3 (Mus musculus) [7], 0.3 to 55.6. In addition, the CI on Caspase-3 (Mus musculus) [8] is 0.63 to 38; on Caspase-3 (Mus musculus) [9], 0.79 to 30.3; on Caspase-3 (Mus musculus) [10], 0.77 to 24; at Caspase-3 (Mus musculus) [11] it was 1.38 to 11.7; on Caspase-3 (Mus musculus) [12] it was 0.67 to 55.9; at Caspase-3 (Mus musculus) [13], 0.49 to 42.8. Moreover, the CI at Caspase-3 (Mus musculus) [14] fell in the range of 0.73 to 26.6; on Caspase-3 (Mus musculus) [15] it was 0.56 to 26.4; at Caspase-3 (Mus musculus) [16], 0.61 to 26.8; on Caspase-3 (Mus musculus) [17], 0.93 to 39.6; on Caspase-3 (Mus musculus) [18] it was 0.66 to 28.1; at Caspase-3 (Mus musculus) [19] it was 0.88 to 16.7. Also, the CI at Caspase-3 (Mus musculus) [20] is 0.84 to 15.2; on Caspase-3 (Mus musculus) [21], 0.97 to 12.8; at Caspase-3 (Mus musculus) [22] it was 0.66 to 17.8; on Caspase-3 (Mus musculus) [23] it was 0.76 to 18.2; at Caspase-3 (Mus musculus) [24] it was 0.84 to 20.1; on Caspase-3 (Mus musculus) [25] it was 0.65 to 31. For the same compound, the CI on Caspase-3 (Mus musculus) [26] was in the range of 0.42 to 58.2; on Caspase-3 (Mus musculus) [27], 0.83 to 22.5; at Caspase-3 (Mus musculus) [28], 0.84 to 23.9; at Caspase-3 (Mus musculus) [29] it was 0.72 to 29; at Caspase-3 (Mus musculus) [30], 0.53 to 40.7; on Caspase-3 (Mus musculus) [31], 0.39 to 62.2. The CI lay within 0.89 to 12.2 at Caspase-3 (Mus musculus) [32]; 0.79 to 15 at Caspase-3 (Mus musculus) [33]; 0.95 to 15.5 at Caspase-3 (Mus musculus) [34]; 0.84 to 21.5 at Caspase-3 (Mus musculus) [35]; 0.47 to 49.7 on Caspase-3 (Mus musculus) [36]; 0.74 to 23.3 at Caspase-3 (Mus musculus) [37]. Also, the CI lay within 0.81 to 23.1 at Caspase-3 (Mus musculus) [38]; 0.86 to 24.1 at Caspase-3 (Mus musculus) [39]; 0.86 to 28 at Caspase-3 (Mus musculus) [40]; 0.42 to 57.2 on Caspase-3 (Mus musculus) [41]; 0.54 to 18.3 on Caspase-3 (Mus musculus) [42]; 0.72 to 20.3 on Caspase-3 (Mus musculus) [43]. The CI on Caspase-3 (Mus musculus) [44] fell in the range of 0.71 to 28.9; at Caspase-3 (Mus musculus) [45], 0.48 to 55.7; at Caspase-3 (Mus musculus) [46], 0.17 to 79.6; at Caspase-3 (Mus musculus) [47], 0.36 to 27.8; at Caspase-3 (Mus musculus) [48], 0.41 to 32.3; at Caspase-3 (Mus musculus) [49], 0.44 to 41.3. Moreover, the CI on Caspase-3 (Mus musculus) [50] lay within 0.32 to 66.8; on Caspase-3 (Mus musculus) [51], 0.28 to 86.3.
With `O=C(N/N=C/c1cccs1)c1ccc2c(c1)OCO2`, the IC50 in the data set with Thoracic aorta was 74 µM.
Consider `O=C(N/N=C/c1ccccc1B(O)O)c1ccncc1`, for which the remaining at 10 h, 100 µM in data set [52] is greater than 93%.
For `COc1cccc2c1C(=O)c1c(O)c3c(c(O)c1C2=O)C[C@@](O)(/C(CO)=N/NC(=O)CCCCCN1C(=O)C=CC1=O)C[C@@H]3OC1C[C@H](N)[C@H](O)[C@H](C)O1` (stereo partly drawn), in data set [53], the half-life fell in the range of 20.1 to 21.1 h.
In the case of `COc1cc(C(=O)N(C)/N=C/c2ccccc2)cc(OC)c1OC`, the half-maximal inhibitory concentration (IC50) with HL-60 [54] amounted to 0.03 µM.
In the case of `O=C(N/N=C/c1ccsc1)c1ccc2c(c1)OCO2`, the IC50 in data set [55] was found to be 0.35 µM.
